pEC50: −log10 of the molar value.
Molecular target: T1, TRβ (Homo sapiens, UniProt P10828)
T1 construct: expressed in transfected cells; host or cells: HEK293
T1 sequence (P10828 217-461 limits assumed): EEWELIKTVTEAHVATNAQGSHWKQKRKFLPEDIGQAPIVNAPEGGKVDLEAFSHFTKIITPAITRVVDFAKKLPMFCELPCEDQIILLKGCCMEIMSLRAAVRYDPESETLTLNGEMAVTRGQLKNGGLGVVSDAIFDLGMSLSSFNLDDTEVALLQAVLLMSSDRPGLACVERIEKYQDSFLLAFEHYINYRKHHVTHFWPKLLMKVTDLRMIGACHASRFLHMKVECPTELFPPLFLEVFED
Assay: Thyroid-hormone reporter-gene assay, TRβ (Gal4 DBD hybrid, luciferase, HEK293)
Type: cell-based
Settings: reporter cells derived from HEK293, 24 hr incubation, luciferase readout
Description: Compounds were tested for thyroid-hormone receptor activity using TR reporter-gene assays. Reporter cells used in the assays express a TR-receptor hybrid (either TRα or TRβ) in which the native N-terminal DNA binding domain (DBD) has been replaced with that of the yeast Gal4 DBD. The reporter gene, firefly luciferase, is functionally linked to the Gal4 upstream activation sequence (UAS). Both cell lines were derived from human embryonic kidney (HEK293).
A suspension of reporter cells was prepared in cell recovery medium containing 10% charcoal-stripped FBS, and dispensed into assay plates. The plates were pre-incubated for 6 hours in a cell culture incubator (37° C./5% CO2/85% humidity).
These intermediate stocks were subsequently diluted directly into compound screening medium containing 10% charcoal-stripped FBS to generate “2×-concentration” treatment media (containing 0.2, 0.4 or 0.8% DMSO).
At the end of the pre-incubation period, culture media were discarded from the assay plates, and all wells received 100 μl of compound screening medium. 100 μl of each of the previously prepared “2×-concentration” treatment media were dispensed into duplicate assay wells, thereby achieving the desired final treatment concentrations. The final concentration of DMSO in all assay wells was 0.1, 0.2 or 0.4%. Assay plates were incubated for 24 hr in a cell culture incubator (37° C./5% CO2/85% humidity).
At the 24 h assay endpoint, treatment media were discarded and […] of luciferase detection reagent was added. Relative luminometer units (RLUs) were quantified from each assay well.

Structure (SMILES) | pEC50
CCOC(=O)c1cccc(-c2cc(Cc3c(Cl)cc(OCC(=O)O)cc3Cl)ccc2O)c1 [Compound 6, 2-(3,5-dichloro-4-((3′-(ethoxycarbonyl)-6-hydroxy-[1,1′-biphenyl]-3-yl)methyl)phenoxy)acetic Acid] | < 6.00
O=C(O)COc1cc(Cl)c(Cc2ccc(O)c(-c3cccc(CO)c3)c2)c(Cl)c1 [Compound 8, 2-(3,5-dichloro-4-((6-hydroxy-3′-(hydroxymethyl)-[1,1′-biphenyl]-3-yl)methyl)phenoxy)acetic Acid] | < 6.00
CC(=O)Nc1cccc(-c2cc(Cc3c(Cl)cc(OCC(=O)O)cc3Cl)ccc2O)c1 [Compound 9, 2-(4-((3′-acetamido-6-hydroxy-[1,1′-biphenyl]-3-yl)methyl)-3,5-dichlorophenoxy)acetic Acid] | < 6.00
CS(=O)(=O)c1cccc(-c2cc(Cc3c(Cl)cc(OCC(=O)O)cc3Cl)ccc2O)c1 [Compound 14, 2-(3,5-dichloro-4-((6-hydroxy-3′-(methylsulfonyl)-[1,1′-biphenyl]-3-yl)methyl)phenoxy)acetic Acid] | < 6.00
COCc1cccc(-c2cc(Cc3c(Cl)cc(OCC(=O)O)cc3Cl)ccc2O)c1 [Compound 15, 2-(3,5-dichloro-4-((6-hydroxy-3′-(methoxymethyl)-[1,1′-biphenyl]-3-yl)methyl)phenoxy)acetic Acid] | < 6.00
O=C(O)COc1cc(Cl)c(Cc2ccc(O)c(-c3cccc(C(F)(F)C(F)(F)F)c3)c2)c(Cl)c1 [Compound 28, 2-(3,5-dichloro-4-((6-hydroxy-3′-(perfluoroethyl)-[1,1′-biphenyl]-3-yl)methyl)phenoxy)acetic Acid] | < 6.00
O=C(O)COc1cc(Cl)c(Cc2ccc(O)c(-c3ccc(C(F)(F)F)s3)c2)c(Cl)c1 [Compound 37] | < 6.00
Cc1ccoc1-c1cc(Cc2c(Cl)cc(OCC(=O)O)cc2Cl)ccc1O [Compound 44, 2-(3,5-dichloro-4-(4-hydroxy-3-(3-methylfuran-2-yl)benzyl)phenoxy)acetic Acid] | < 6.00
O=C(O)COc1cc(Cl)c(Cc2ccc(O)c(-c3ccc(F)c(C(F)(F)F)c3)c2)c(Cl)c1 [Compound 48, 2-(3,5-dichloro-4-((4′-fluoro-6-hydroxy-3′-(trifluoromethyl)-[1,1′-biphenyl]-3-yl)methyl)phenoxy)acetic acid] | < 6.00
O=C(O)COc1cc(Cl)c(Cc2ccc(O)c(-c3cc(F)cc(C(F)(F)F)c3)c2)c(Cl)c1 [Compound 50, 2-(3,5-dichloro-4-((3′-fluoro-6-hydroxy-5′-(trifluoromethyl)-[1,1′-biphenyl]-3-yl)methyl)phenoxy)acetic Acid] | 6.00 to 7.00
O=C(O)COc1cc(Cl)c(Cc2ccc(O)c(-c3ccc(F)c(OC(F)F)c3)c2)c(Cl)c1 [Compound 55, 2-(3,5-dichloro-4-((3′-(difluoromethoxy)-4′-fluoro-6-hydroxy-[1,1′-biphenyl]-3-yl)methyl)phenoxy)acetic Acid] | < 6.00
N#Cc1ccc(Cc2cc(Cc3c(Cl)cc(OCC(=O)O)cc3Cl)ccc2O)cc1 [Compound 80, 2-(3,5-dichloro-4-(3-(4-cyanobenzyl)-4-hydroxybenzyl)phenoxy)acetic Acid] | < 6.00
Cc1ccc(Cc2cc(Cc3c(Cl)cc(OCC(=O)O)cc3Cl)ccc2O)cc1 [Compound 92, 2-(3,5-dichloro-4-(4-hydroxy-3-(4-methylbenzyl)benzyl)phenoxy)acetic Acid] | < 6.00
O=C(O)COc1cc(Cl)c(Cc2ccc(O)c(Cc3cncnc3)c2)c(Cl)c1 [Compound 94, 2-(3,5-dichloro-4-(4-hydroxy-3-(pyrimidin-5-ylmethyl)benzyl)phenoxy) acetic Acid] | < 6.00
O=C(O)COc1cc(Cl)c(Cc2ccc(O)c(Cc3ccc(CC(F)(F)F)cc3)c2)c(Cl)c1 [Compound 96, 2-(3,5-dichloro-4-(4-hydroxy-3-(4-(2,2,2-trifluoroethyl)benzyl)benzyl)phenoxy)acetic Acid] | < 6.00
